Like-named read-outs stand apart in the source and are kept apart here.
Experiments:
A673 cells = assay: Cytotoxicity in A673 cells (Cell Titer Glo viability); format: cell-based; conditions: for Ratio of Biochemical Potency:Cellular Potency: CDK12 IC50 / A673 IC50; for IC50: Homo sapiens
Protocol: Cells were plated in 96-well plates at a density of […] viable cells per well in 200 μL fully supplemented growth medium (DMEM+10% heat inactivated foetal bovine serum) and incubated for 24 hours in standard tissue culture conditions. Compounds, including MLN4924, were solubilised in DMSO and then diluted in fully supplemented growth medium at 2× their final assay concentration such that the final DMSO concentration was 0.1%. Growth medium in the assay plates was replaced with 50 μL of growth medium containing 2×MLN4924 (final assay concentration: 30 nM, where tested) or vehicle only and 50 μL of growth medium containing a 2× compound concentration series or vehicle only such that each compound was at 1× final assay concentration in 100 μL.
Cells were then incubated for 72 hours in standard tissue culture conditions before viability was assessed using 50 μL Cell Titer Glo reagent (Promega) per well and luminescence measured on an EnVision plate reader. Data were normalised to vehicle control (100%) and cells treated with 0.1% Triton x-100 for 1 hour before viability measurement (0%; full cell kill). […] Viability curves generated in the presence of MLN4924 were normalised and fixed to controls treated with MLN4924.

Human CDK12 wt/CycK = Human CDK12 wt/CycK (Homo sapiens (Human), UniProt Q9NYV4); assay: Radiometric protein kinase assay (33PanQinase Activity Assay), CDK12; format: biochemical; conditions: for CDK7/CDK12: ratio of CDK7 IC50 to CDK12 IC50, greater than 1 indicates selectivity for CDK12
Protocol: (§1) A radiometric protein kinase assay (^33PanQinase® Activity Assay) was used for measuring the kinase activity of the two protein kinases (CDK12/CDK7). All kinase assays were performed in 96-well FlashPlates™ from PerkinElmer (Boston, MA, USA) in a 50 μL reaction volume.
(§2) The reaction cocktail was pipetted in four steps in the following order: • 20 μL of assay buffer (standard buffer) • 5 μL of ATP solution (in H2O) • 5 μL of test compound (in 10% DMSO) • 10 μL of substrate/10 μL of enzyme solution (premixed)
(§3) The reaction mixture was incubated at 30° C. for 60 min and then stopped by the addition of 2% (v/v) H3PO4. Plates were aspirated and washed two times with 200 μL 0.9% (w/v) NaCl. Incorporation of ^33Pi was determined with a microplate scintillation count (Microbeta, Wallac).
The fitting method used was a least-squares fit.

Human CDK7/CycH/MAT1 = Human CDK7/CycH/MAT1 (Homo sapiens (Human), UniProt P50613); assay: Radiometric protein kinase assay (33PanQinase Activity Assay), CDK7; format: biochemical; conditions: ATP 3 μM
Protocol: Additionally for the CDK7 assay: • Human CDK7/CycH/MAT1 (ProQinase, 0366-0360-4—Lot 2). • RBER-CHKtide (ProQinase, 0581-0000-5—Lot 106).
as §1, §2
For the CDK7 assay, a reaction mixture (50 μL) containing the following components was prepared: • 70 mM HEPES-NaOH (pH 7.5); • sodium orthovanadate (3 μM); • PEG-20000 (50 μg/mL); • DTT (1.2 mM); • MgCl2 (3 mM); • MnCl2 (3 mM); • purified human CDK7/CycH/MAT1 (3.3 nM—Lot 02); • RBER-CHKtide substrate (40 μg/mL—Lot 106); • ATP (3 μM); • [γ-33P]-ATP (approx. 8×10^5 cpm per well); and • test compound at the appropriate concentration such that the final concentration of DMSO was […].
as §3
The residual activities for each concentration and the compound IC50 values were calculated using Quattro Workflow V3.1.1 (Quattro Research GmbH, Munich, Germany). The fitting model for the IC50 determinations was “Sigmoidal response (variable slope)” with parameters “top” fixed at 100% and “bottom” at 0%. The fitting method used was a least-squares fit.

[1] = A673, read-out: Cellular Potency IC50 (nM) (in A673 cells)
[2] = A673 cells, 72 hours, read-out: A673 IC50
[3] = ATP 0.3 μM, read-out: CDK12 IC50
[4] = read-out: CKD12 Biochemical Potency IC50

Human CDK7/CycH/MAT1, sequence (P50613 whole entry): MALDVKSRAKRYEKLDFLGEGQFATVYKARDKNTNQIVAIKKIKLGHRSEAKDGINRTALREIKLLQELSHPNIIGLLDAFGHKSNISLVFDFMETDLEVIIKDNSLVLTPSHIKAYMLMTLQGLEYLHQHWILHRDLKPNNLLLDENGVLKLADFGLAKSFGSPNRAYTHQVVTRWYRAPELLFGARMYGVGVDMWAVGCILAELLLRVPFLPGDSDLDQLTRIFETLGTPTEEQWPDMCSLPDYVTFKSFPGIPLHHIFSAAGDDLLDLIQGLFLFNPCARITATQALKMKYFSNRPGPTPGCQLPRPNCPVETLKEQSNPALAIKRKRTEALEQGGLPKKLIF
Human CDK7/CycH/MAT1, sequence (P51946 whole entry partner): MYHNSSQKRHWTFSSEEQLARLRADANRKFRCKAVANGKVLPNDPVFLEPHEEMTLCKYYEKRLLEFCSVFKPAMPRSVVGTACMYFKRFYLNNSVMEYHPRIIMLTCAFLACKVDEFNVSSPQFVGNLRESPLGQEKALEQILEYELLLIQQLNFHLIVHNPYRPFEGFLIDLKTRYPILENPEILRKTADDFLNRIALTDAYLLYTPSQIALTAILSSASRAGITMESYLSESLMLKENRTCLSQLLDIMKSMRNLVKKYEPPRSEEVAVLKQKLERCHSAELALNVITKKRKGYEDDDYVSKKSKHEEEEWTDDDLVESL
Human CDK7/CycH/MAT1, sequence (P51948 whole entry partner): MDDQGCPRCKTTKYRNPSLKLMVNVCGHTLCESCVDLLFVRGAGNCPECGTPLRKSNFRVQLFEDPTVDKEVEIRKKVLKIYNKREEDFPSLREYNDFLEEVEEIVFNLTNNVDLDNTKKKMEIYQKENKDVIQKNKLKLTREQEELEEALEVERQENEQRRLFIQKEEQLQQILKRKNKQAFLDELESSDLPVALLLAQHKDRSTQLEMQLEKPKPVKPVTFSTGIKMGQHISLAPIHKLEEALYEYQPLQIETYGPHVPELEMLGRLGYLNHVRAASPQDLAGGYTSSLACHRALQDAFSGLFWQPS
Human CDK12 wt/CycK, sequence (Q9NYV4 whole entry): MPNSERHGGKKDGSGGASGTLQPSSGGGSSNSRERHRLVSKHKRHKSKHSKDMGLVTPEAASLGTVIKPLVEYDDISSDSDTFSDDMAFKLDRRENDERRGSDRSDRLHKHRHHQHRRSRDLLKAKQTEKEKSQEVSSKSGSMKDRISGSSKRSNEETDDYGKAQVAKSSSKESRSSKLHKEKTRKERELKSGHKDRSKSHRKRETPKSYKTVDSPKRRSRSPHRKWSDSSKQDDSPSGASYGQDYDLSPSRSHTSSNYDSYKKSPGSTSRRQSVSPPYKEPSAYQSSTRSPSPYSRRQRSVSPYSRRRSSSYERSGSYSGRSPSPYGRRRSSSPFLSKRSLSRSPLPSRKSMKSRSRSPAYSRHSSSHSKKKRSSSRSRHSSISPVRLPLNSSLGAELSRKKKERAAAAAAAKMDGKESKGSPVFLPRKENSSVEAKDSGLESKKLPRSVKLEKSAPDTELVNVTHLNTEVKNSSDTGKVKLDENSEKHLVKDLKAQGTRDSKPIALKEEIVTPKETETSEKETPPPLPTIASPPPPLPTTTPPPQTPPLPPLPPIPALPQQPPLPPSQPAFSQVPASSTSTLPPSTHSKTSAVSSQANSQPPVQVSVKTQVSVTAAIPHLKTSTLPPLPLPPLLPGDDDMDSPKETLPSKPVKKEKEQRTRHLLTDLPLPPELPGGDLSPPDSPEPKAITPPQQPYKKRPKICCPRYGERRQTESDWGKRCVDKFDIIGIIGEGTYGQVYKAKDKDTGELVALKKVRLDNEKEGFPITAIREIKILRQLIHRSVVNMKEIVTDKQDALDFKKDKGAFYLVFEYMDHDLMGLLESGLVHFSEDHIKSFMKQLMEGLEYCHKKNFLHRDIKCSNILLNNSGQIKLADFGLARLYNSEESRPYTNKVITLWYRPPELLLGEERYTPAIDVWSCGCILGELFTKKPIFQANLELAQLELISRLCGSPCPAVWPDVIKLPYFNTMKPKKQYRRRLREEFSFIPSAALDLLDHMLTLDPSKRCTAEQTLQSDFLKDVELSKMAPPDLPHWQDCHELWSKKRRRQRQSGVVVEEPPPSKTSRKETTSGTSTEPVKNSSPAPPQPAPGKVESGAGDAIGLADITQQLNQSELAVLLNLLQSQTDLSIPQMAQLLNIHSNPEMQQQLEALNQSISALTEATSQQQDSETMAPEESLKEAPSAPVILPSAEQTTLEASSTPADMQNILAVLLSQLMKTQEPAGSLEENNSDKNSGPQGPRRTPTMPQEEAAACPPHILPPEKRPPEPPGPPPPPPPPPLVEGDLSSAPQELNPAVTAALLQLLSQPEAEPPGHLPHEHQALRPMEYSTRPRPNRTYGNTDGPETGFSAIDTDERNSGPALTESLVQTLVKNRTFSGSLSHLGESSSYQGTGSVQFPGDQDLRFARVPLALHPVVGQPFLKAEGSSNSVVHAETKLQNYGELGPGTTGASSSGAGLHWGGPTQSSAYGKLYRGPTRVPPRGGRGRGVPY
Human CDK12 wt/CycK, sequence (O75909 whole entry partner): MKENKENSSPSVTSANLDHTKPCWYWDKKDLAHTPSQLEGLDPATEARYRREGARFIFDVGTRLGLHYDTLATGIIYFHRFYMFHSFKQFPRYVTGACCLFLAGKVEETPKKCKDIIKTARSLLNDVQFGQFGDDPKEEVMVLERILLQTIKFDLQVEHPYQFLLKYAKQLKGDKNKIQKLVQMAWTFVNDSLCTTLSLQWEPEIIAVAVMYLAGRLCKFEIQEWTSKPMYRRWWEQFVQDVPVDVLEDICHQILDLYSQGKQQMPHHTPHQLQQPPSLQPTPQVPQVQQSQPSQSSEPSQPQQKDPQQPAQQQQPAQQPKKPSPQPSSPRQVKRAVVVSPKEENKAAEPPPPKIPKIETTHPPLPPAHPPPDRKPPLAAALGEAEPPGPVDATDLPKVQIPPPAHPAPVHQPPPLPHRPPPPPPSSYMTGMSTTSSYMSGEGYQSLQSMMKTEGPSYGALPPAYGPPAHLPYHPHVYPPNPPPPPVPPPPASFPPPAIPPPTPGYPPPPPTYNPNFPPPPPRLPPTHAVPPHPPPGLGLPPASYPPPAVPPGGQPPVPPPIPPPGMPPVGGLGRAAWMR

SMILES | Ratio of Biochemical Potency:Cellular Potency (A673 cells) | IC50 (A673 cells; [1]) [nM] | IC50 (A673 cells; [2]) [nM] | IC50 (Human CDK12 wt/CycK; [3]) [nM] | CDK7/CDK12 (Human CDK12 wt/CycK) | IC50 (Human CDK12 wt/CycK; [4]) [nM] | IC50 (Human CDK7/CycH/MAT1) [nM]
N#Cc1cnn2c(NCc3ccc(-c4ccccc4)cc3)cc(NC[C@H]3CCNC[C@@H]3O)nc12 [PPA-081] | 7.50 | 7.6 | 7.6 | 57 | 6.0 | 57 | 344
CC(C)c1cnn2c(NCc3ccc(-c4cccnc4)cc3)cc(NC[C@H]3CCNC[C@@H]3O)nc12 [PPA-003, (3R,4R)-4-(((3-isopropyl-7-((4-(pyridin-3-yl)benzyl)amino)pyrazolo[1,5-a]pyrimidin-5-yl)amino)methyl)piperidin-3-ol] | 2.90 | 16.2 | 16.2 | 47 | 1.6 | 47 | 76
O=C1CC(CNc2cc(NCc3ccc(-c4ccccn4)cc3)n3ncc(C4CC4)c3n2)CCN1 (stereo not drawn) [PPA-051] | 22.98 | 28.9 | 28.9 | 664 | 16.9 | 664 | 11200
O[C@H]1CNCC[C@@H]1CNc1cc(NCc2ccc(-c3ccccc3)cn2)n2ncc(C3CC3)c2n1 [PPA-034] | 10.71 | 11.3 | 11.3 | 121 | 4.4 | 121 | 530
c1ccc(-c2ccc(CNc3cc(N4CCNC5(CC5)C4)nc4c(C5CC5)cnn34)cc2)nc1 [PPA-077] | 5.47 | 7.5 | 7.5 | 41 | 33.9 | 41 | 1390
O[C@H]1CNCC[C@@H]1CNc1cc(NCc2c(F)cc(-c3ccccc3)cc2F)n2ncc(C3CC3)c2n1 [PPA-076] | <14.9 | > 100 | > 100 | 1490 | 1.5 | 1490 | 2250
N#Cc1cnn2c(NCc3ccc(-c4ccccn4)cc3)cc(NC[C@H]3CCNC[C@@H]3O)nc12 [PPA-010] | 4.50 | 8 | 8 | 36 | 9.4 | 36 | 340
CC1(CNc2cc(NCc3ccc(-c4ccccn4)cc3)n3ncc(C4CC4)c3n2)CCNCC1 [PPA-063] | – | 5.9 | 5.9 | – | – | – | –
c1ccc(-c2ccc(CNc3cc(O[C@@H]4CCCNC4)nc4c(C5CC5)cnn34)cc2)nc1 [PPA-061] | 18.30 | 5.3 | 5.3 | 97 | 13.0 | 97 | 1260
Cn1cc(-c2ccccn2)nc1CNc1cc(NC[C@H]2CCNC[C@@H]2O)nc2c(C3CC3)cnn12 [PPA-024] | 0.06 | 96.4 | 96.4 | 6 | 2.8 | 6 | 17
CCc1cnn2c(NCc3ccc(-c4ccccn4)cc3F)cc(NC[C@H]3CCNC[C@@H]3O)nc12 [PPA-068] | 28.00 | 1.5 | 1.5 | 42 | 7.7 | 42 | 323
NC1CN(c2cc(NCc3ccc(-c4ccccn4)cc3)n3ncc(C4CC4)c3n2)C1 [PPA-057] | 24.65 | 50.3 | 50.3 | 1240 | 10.7 | 1240 | 13300
CN(C[C@H]1CCNC[C@@H]1O)c1cc(NCc2ccc(-c3ccccn3)cc2)n2ncc(C3CC3)c2n1 [PPA-053] | 21.20 | 2.5 | 2.5 | 53 | 3.2 | 53 | 169
O[C@H]1CNCC[C@@H]1CNc1cc(NCc2ccc(-c3ncccc3C(F)(F)F)cc2)n2ncc(C3CC3)c2n1 [PPA-036] | 0.78 | 312 | 312 | 245 | 1.6 | 245 | 388
c1ccc(-c2ccc(CNc3cc(N4CC5(CNC5)C4)nc4c(C5CC5)cnn34)cc2)nc1 [PPA-084] | 15.28 | 73.3 | 73.3 | 1120 | 12.5 | 1120 | 14000
COc1cccnc1-c1ccc(CNc2cc(NC[C@H]3CCNC[C@@H]3O)nc3c(C(C)C)cnn23)cc1 [PPA-013] | 40.45 | 2.2 | 2.2 | 89 | 1.3 | 89 | 114
O[C@H]1CNCC[C@@H]1CNc1cc(NCc2ccc(-c3ccccn3)cn2)n2ncc(C3CC3)c2n1 [PPA-021] | 9.20 | 7.5 | 7.5 | 69 | 5.7 | 69 | 393
O[C@H]1CNCC[C@@H]1CNc1cc(NCc2ccc(-c3ccccc3)cc2)n2ncc(Cl)c2n1 [PPA-083] | 7.11 | 4.5 | 4.5 | 32 | 3.7 | 32 | 118
CS(=O)(=O)N1CCC(CNc2cc(NCc3ccc(-c4ccccn4)cc3)n3ncc(C4CC4)c3n2)CC1 [PPA-056] | – | > 100 | > 100 | – | – | – | –

Reference: patent publication US20240383900A1, “SUBSTITUTED PYRAZOLO [1,5-A]PYRIMIDINE-7-AMINE COMPOUNDS AS CDK INHIBITORS AND THEIR THERAPEUTIC USE” (Carrick Therapeutics Limited, priority 2021, published 2024)
